Assay results reported in the NIST ThermoML archive (doi:10.1016/j.jct.2013.10.017).
± gives the expanded uncertainty stated by the source.

Columns and labels:
[1] = activity coefficient (dimensionless); of the first substance listed, at infinite dilution; xn = mol fraction of the nth substance listed; conditions: 100 kPa, Liquid, Chromatography, x1 = 0
[2] = 101.33 kPa, Liquid, Vibrating tube method
[3] = refractive index (Na D-line) (dimensionless); conditions: 101.33 kPa, Liquid, Standard Abbe refractometry

| SMILES | activity coefficient ([1]; 308.15 K) | activity coefficient ([1]; 313.15 K) | activity coefficient ([1]; 323.15 K) | activity coefficient ([1]; 333.15 K) | further results |
| --- | --- | --- | --- | --- | --- |
| C1CCCCCCC1 [cyclooctane] + CCn1cc[n+](C)c1.COCCOCCOS(=O)(=O)[O-] | 82.6 ± 3.7 | 79.8 ± 3.6 | 73.4 ± 4.3 | 68.2 ± 6.2 | – |
| CCc1ccccc1 [ethylbenzene] + CCn1cc[n+](C)c1.COCCOCCOS(=O)(=O)[O-] | 8.04 ± 0.38 | 8.04 ± 0.47 | 8.06 ± 0.61 | 8.17 ± 0.74 | – |
| C1CCCCCC1 [cycloheptane] + CCn1cc[n+](C)c1.COCCOCCOS(=O)(=O)[O-] | 60.3 ± 2.9 | 58.7 ± 3.2 | 54.1 ± 3.8 | 50.6 ± 5 | – |
| CCCCC [pentane] + CCn1cc[n+](C)c1.COCCOCCOS(=O)(=O)[O-] | 65.8 ± 4.5 | 65.6 ± 4 | 60.8 ± 2.9 | 59 ± 5.1 | – |
| CCCCCCCC [octane] + CCn1cc[n+](C)c1.COCCOCCOS(=O)(=O)[O-] | 215 ± 9.9 | 216 ± 9.9 | 212 ± 10 | 202 ± 10 | – |
| C=CCCCCCCC [1-nonene] + CCn1cc[n+](C)c1.COCCOCCOS(=O)(=O)[O-] | 168 ± 7.6 | 168 ± 9.1 | 160 ± 7.1 | 149 ± 8.9 | – |
| C=CCCC [1-pentene] + CCn1cc[n+](C)c1.COCCOCCOS(=O)(=O)[O-] | 26.1 ± 2.4 | 26.5 ± 1.5 | 26.3 ± 2 | 25.4 ± 2 | – |
| C#CCCC [1-pentyne] + CCn1cc[n+](C)c1.COCCOCCOS(=O)(=O)[O-] | 3.62 ± 0.19 | 3.74 ± 0.25 | 3.98 ± 0.4 | 4.13 ± 0.4 | – |
| CCn1cc[n+](C)c1.COCCOCCOS(=O)(=O)[O-] [1-ethyl-3-methylimidazolium 2-(2-methoxyethoxy) ethylsulfate] | – | – | – | – | mass density ([2]; 308.2 K): 1230.4 ± 1.3 kg/m3; mass density ([2]; 313.2 K): 1226.21 ± 1.3 kg/m3; mass density ([2]; 323.2 K): 1219.6 ± 1.3 kg/m3; mass density ([2]; 333.2 K): 1213.66 ± 1.3 kg/m3; refractive index ([3]; 308.2 K): 1.47929 ± 0.00051; refractive index ([3]; 313.2 K): 1.47565 ± 0.00051; refractive index ([3]; 323.2 K): 1.47281 ± 0.00051; refractive index ([3]; 333.2 K): 1.46995 ± 0.00051 |
| CC(C)=O [acetone] + CCn1cc[n+](C)c1.COCCOCCOS(=O)(=O)[O-] | 1.42 ± 0.07 | 1.46 ± 0.07 | 1.47 ± 0.11 | 1.51 ± 0.13 | – |
| Cc1ccccc1 [toluene] + CCn1cc[n+](C)c1.COCCOCCOS(=O)(=O)[O-] | 4.43 ± 0.21 | 4.45 ± 0.27 | 4.51 ± 0.33 | 4.62 ± 0.45 | – |
| CCCCCCCCC [nonane] + CCn1cc[n+](C)c1.COCCOCCOS(=O)(=O)[O-] | 292 ± 16 | 303 ± 14 | 288 ± 20 | 281 ± 13 | – |
| CCCCCC [hexane] + CCn1cc[n+](C)c1.COCCOCCOS(=O)(=O)[O-] | 103 ± 4.9 | 102 ± 4.9 | 94 ± 5.2 | 85.7 ± 7.4 | – |
| C#CCCCCCCC [1-nonyne] + CCn1cc[n+](C)c1.COCCOCCOS(=O)(=O)[O-] | 23.9 ± 1.1 | 24.7 ± 1.1 | 25.7 ± 1.9 | 26.4 ± 2.4 | – |
| CCCO [propan-1-ol] + CCn1cc[n+](C)c1.COCCOCCOS(=O)(=O)[O-] | 1.01 ± 0.05 | 0.989 ± 0.056 | 0.942 ± 0.055 | 0.913 ± 0.063 | – |
| CCO [ethanol] + CCn1cc[n+](C)c1.COCCOCCOS(=O)(=O)[O-] | 0.719 ± 0.032 | 0.705 ± 0.033 | 0.664 ± 0.03 | 0.666 ± 0.029 | – |
| CO [methanol] + CCn1cc[n+](C)c1.COCCOCCOS(=O)(=O)[O-] | 0.39 ± 0.027 | 0.392 ± 0.027 | 0.374 ± 0.031 | 0.369 ± 0.027 | – |
| C=CCCCCCC [oct-1-ene] + CCn1cc[n+](C)c1.COCCOCCOS(=O)(=O)[O-] | 114 ± 5.6 | 113 ± 6.1 | 107 ± 5.6 | 101 ± 8 | – |
| CCC(C)=O [butanone] + CCn1cc[n+](C)c1.COCCOCCOS(=O)(=O)[O-] | 2.33 ± 0.12 | 2.34 ± 0.13 | 2.37 ± 0.18 | 2.42 ± 0.21 | – |
| C#CCCCCC [1-heptyne] + CCn1cc[n+](C)c1.COCCOCCOS(=O)(=O)[O-] | 9.61 ± 0.48 | 9.76 ± 0.56 | 10.1 ± 0.83 | 10.3 ± 1 | – |
| CCCCCCC [heptane] + CCn1cc[n+](C)c1.COCCOCCOS(=O)(=O)[O-] | 158 ± 7.1 | 158 ± 8 | 147 ± 6.8 | 139 ± 6.2 | – |
| C=CCCCCC [1-heptene] + CCn1cc[n+](C)c1.COCCOCCOS(=O)(=O)[O-] | 71.3 ± 4.7 | 71.7 ± 3.2 | 68.6 ± 4.8 | 65.6 ± 6.1 | – |
| C#CCCCCCC [1-octyne] + CCn1cc[n+](C)c1.COCCOCCOS(=O)(=O)[O-] | 16.4 ± 0.7 | 16.7 ± 0.9 | 17.1 ± 1.3 | 17.4 ± 1.7 | – |
| C=CCCCC [hex-1-ene] + CCn1cc[n+](C)c1.COCCOCCOS(=O)(=O)[O-] | 45.6 ± 2.4 | 44.7 ± 2.2 | 43.4 ± 4.1 | 40.3 ± 3.2 | – |
| C1CCCCC1 [cyclohexane] + CCn1cc[n+](C)c1.COCCOCCOS(=O)(=O)[O-] | 45.4 ± 2.1 | 45 ± 2.9 | 41.5 ± 3.2 | 38.8 ± 4.1 | – |
| CC1CCCCC1 [methylcyclohexane] + CCn1cc[n+](C)c1.COCCOCCOS(=O)(=O)[O-] | 71.9 ± 3.2 | 70.6 ± 3.3 | 65.8 ± 4.1 | 62.3 ± 5.7 | – |
| C1CCCC1 [cyclopentane] + CCn1cc[n+](C)c1.COCCOCCOS(=O)(=O)[O-] | 27.1 ± 1.3 | 26 ± 1.5 | 24.1 ± 2 | 22.8 ± 1.4 | – |
| c1ccccc1 [benzene] + CCn1cc[n+](C)c1.COCCOCCOS(=O)(=O)[O-] | 2.31 ± 0.12 | 2.33 ± 0.15 | 2.41 ± 0.18 | 2.48 ± 0.22 | – |
| C#CCCCC [1-hexyne] + CCn1cc[n+](C)c1.COCCOCCOS(=O)(=O)[O-] | 6.05 ± 0.32 | 6.22 ± 0.38 | 6.49 ± 0.56 | 6.73 ± 0.65 | – |
